# Assay results: article PMC10424441, “Macrophage targeted polymeric curcumin nanoparticles limit intracellular survival of Mycobacterium tuberculosis through induction of autophagy and augment anti-TB activity of isoniazid in RAW 264.7 macrophages” (Frontiers in Immunology, 2023)
# Read-outs that look alike come from different tables or passages of the source.
# Columns and labels:
# [1] = tested on: MTB H37Rv; test: Macrophage infection and CFU assay (intracellular survival in RAW 264.7); assay type: cell-based, Mycobacterium tuberculosis; settings: for Percent survival of MTB (percentage of control): adjunctive action experiment, dose not given
# [2] = tested on: LC3-I to LC3-II conversion and p62 degradation in RAW 264.7 cells; test: Western blot of autophagy markers, uninfected cells; assay type: cell-based, Murine; settings: 10μM and 20μM, 24h
# Protocol: (§1) Cells were harvested, washed thrice with 1X cold PBS and lysed in RIPA lysis buffer containing 1% protease inhibitor cocktail (Sigma) and 3% phosphatase inhibitor cocktail (Sigma). Total protein concentration in the cell lysate was estimated by Bradford reagent (Sigma). Samples containing equal amounts of protein (80μg/well) were run on 10% SDS PAGE followed by electro transfer on nitrocellulose membrane. Membranes were blocked with blocking buffer (5% w/v skimmed milk in 1X TBST) for 30 minutes followed by incubation with respective antibodies for 4 h at room temperature. Further, membranes were washed thrice with 1xTBST for 15 minutes and incubated appropriate secondary antibody HRP conjugate for 2 h and blots were developed with Enhanced Chemiluminescence kit (Roche) according to manufacturer’s protocol. Densitometric analysis was performed using ImageJ software.
# [3] = tested on: MDR clinical isolate of MTB, strain-2; assay type: cell-based, Mycobacterium tuberculosis; settings: 10μM and 20μM, 48 and 72h
# [4] = tested on: GFP-MTB H37Rv infected RAW 264.7 cells; test: Confocal microscopy of phagosome lysosome fusion; assay type: cell-based, Murine; settings: 10μM and 20μM, 48h, MOI 5
# Protocol: RAW 264.7 cells (5 x 10^5 cells/ml) were seeded on sterile coverslips in 6-well plates and incubated at 37°C for overnight in CO2 incubator. Next day cells were infected with GFP-MTB H37Rv at MOI 5 and treated with CMN for 48h. Lysotracker Red (Thermo) was added to each well at concentration of 70nM for 3h prior to the end of incubation. Coverslips were washed twice with sterile 1XPBS and fixed with 4% para formaldehyde. Cover slips were mounted on glass slides using Prolong® Gold Antifade (Thermo) mounting reagent containing DAPI and images were acquired on Zeiss LSM 510 Meta confocal microscope (Carl Zeiss) equipped with 63X oil immersion lens. Optical sections with Z-stack were taken to evaluate colocalization and images were deconvolved.
# [5] = tested on: Caspase-3, cleaved caspase-3, cleaved PARP, Bax and Bcl-2 in RAW cells with or without MTB infection; test: Western blot of pro and anti-apoptotic proteins; assay type: cell-based, Murine; settings: 10μM and 20μM
# Protocol: as §1
# [6] = Oral pharmacokinetics study; settings: 50 mg/kg
# [7] = tested on: MDR clinical isolate of MTB, strain-1; assay type: cell-based, Mycobacterium tuberculosis; settings: 10μM and 20μM, 48 and 72h
# [8] = tested on: LC3-I to LC3-II conversion and p62 degradation in MTB H37Rv infected RAW cells; test: Western blot of autophagy markers, MTB infected cells; assay type: cell-based, Murine; settings: 10μM and 20μM, MTB H37Rv infected RAW macrophages
# Protocol: as §1
structure (smiles),measurement,setting,value
"COc1cc(C=CC(=O)CC(=O)C=Cc2ccc(O)c(OC)c2)ccc1O [CMN, 1,7-bis (4-hydroxy-3-methoxy-phenyl) hepta-1,6-diene-3,5-dione]",Percent survival (percentage of control),"[1]; 10μM, 48h, in presence of autophagy inhibitor 3-MA",87.1 ± 6.6%
same,Percent survival (percentage of control),"[1]; 10μM, 48h post infection, RAW 264.7, MOI 5",57 ± 4.6%
same,Percent survival (percentage of control),"[1]; 10μM, 72h, in presence of autophagy inhibitor 3-MA",80.1 ± 6.8%
same,Percent survival (percentage of control),"[1]; 10μM, 72h post infection, RAW 264.7, MOI 5",49.1 ± 7.8%
same,Percent survival (percentage of control),"[1]; 20μM, 48h, RAW 264.7, MOI 5",47.7 ± 4.1%
same,Percent survival (percentage of control),"[1]; 20μM, 48h, in presence of autophagy inhibitor 3-MA",87.1 ± 4.6%
same,Percent survival (percentage of control),"[1]; 20μM, 72h, RAW 264.7, MOI 5",45.6 ± 6.1%
same,Percent survival (percentage of control),"[1]; 20μM, 72h, in presence of autophagy inhibitor 3-MA",85.7 ± 8.8%
same,Percent survival of MTB (percentage of control),[1]; 48h of treatment,41.6 ± 3.5%
same,Percent survival of MTB (percentage of control),[1]; 72h of treatment,34.8 ± 3.0%
same,Conversion of LC3-I to LC3-II (immunoblotting),[2],conversion of LC3-I to II at 10μM and 20μM dose
same,Degradation of p62 (immunoblotting),[2],p62 degradation at 10μM and 20μM dose
same,Percent survival,[3],inhibited the percent survival
same,Percent survival,[3]; treatment with 3-MA,increase in the percent survival that was comparable to untreated controls
same,Phagosome lysosome fusion (co localization of GFP and Lysotracker Red),[4],formation of yellow compartment in both the CMN treatment groups after 48h
same,Expression of anti-apoptotic protein Bcl-2,"[5]; 24h, RAW cells with or without MTB infection",downregulation
same,"Expression of pro apoptotic proteins cleaved caspase-3, cleaved PARP and Bax","[5]; 24h post treatment, compared to untreated cells",upregulated
same,AUC(0-inf),"[6]; BALB/c, mouse, in vivo, po",170 ng·h/mL
same,AUC(0-t),"[6]; BALB/c, mouse, in vivo, po",119 ng·h/mL
same,Cmax,"[6]; BALB/c, mouse, in vivo, po",45.2 ng/mL
same,MRT inf,"[6]; BALB/c, mouse, in vivo, po",5.07 h
same,Tmax,"[6]; BALB/c, mouse, in vivo, po",0.25 h
same,half-life,"[6]; BALB/c, mouse, in vivo, po",3.66 h
same,k el,"[6]; BALB/c, mouse, in vivo, po",5.28e-05 s⁻¹
same,Time up to which CMN was detected in plasma after administration,"[6]; oral, BALB/c mice",up to 8 h
same,Percent survival,[7],inhibited the percent survival
same,Percent survival,[7]; treatment with 3-MA,increase in the percent survival that was comparable to untreated controls
same,Autophagy induction (LC3-I to LC3-II conversion and p62 degradation),[8],autophagy induction in MTB infected cells after CMN treatment
"NNC(=O)c1ccncc1 [INH, isoniazid]",Percent survival of MTB (percentage of control),[1]; 48h of treatment,35.1 ± 2.8%
same,Percent survival of MTB (percentage of control),[1]; 72h of treatment,22.9 ± 4.5%
